Data from patent publication US20240238076A1, “PROCESS FOR PRODUCING VASCULAR PROSTHESES” (Medizinische Universität Wien, priority 2021, published 2024).

System: HUVECs
Assay: XTT cytotoxicity test with HUVEC cultures
Format: cell-based, human
Conditions: 24 h incubation, 10-fold dilution series from 450 μmol/ml
Description: Human umbilical vein endothelial cells (HUVEC, pooled donator, Lonza, Switzerland) were cultivated in endothelial growth medium (EGM-2, Lonza, Switzerland) supplemented with 10% of FBS. The exchange of medium was conducted every other day. The cells were used for the experiments between passage 3 and 6.
XTT (2,3-bis(2-methoxy-4-nitro-5-sulfophenyl)-5-[(phenylamino)carbonyl)-2H-tetrazoliumhydroxide) can be reduced to a formazan product in viable cells. The result can be determined by photometric measurements and correlated with the number of viable cells. The assay was conducted based on ISO10993-5.
HUVECs or macrophages were seeded on the polymer disks at a cell number of 10,000 cells/disk in a 96 well plate for 24 h until a confluent cell layer was formed. XTT powder was dissolved in a cell culture medium with 60° C. at a concentration of 1 mg/ml. PMS (phenazine methosulfate, Sigma-Aldrich, USA) was dissolved in PBS at a concentration of 5 mM. For preparing a working solution, which was added to cells, PMS was pipetted into the XTT solution at a concentration of 25 μM. The cells were incubated with 50 μl of this XTT working solution for 4 h at 37° C. in a cell culture incubator. The medium was then transferred to a new 96 well plate, and absorption at 450 nm was measured with a reference wavelength of 620 nm. The results are shown in FIG. 9 as mean values of three determinations. […]

## CC(C)(C)NCCNC(C)(C)C [TBEDA, N,N′-di-tert-butylethylenediamine]
  Concentration from which the viability of HUVECs was at an acceptable level: 45000 µM
